The values below come from paper PMC3577830, “Crystal Structure of Silkworm Bombyx mori JHBP in Complex With 2-Methyl-2,4-Pentanediol: Plasticity of JH-Binding Pocket and Ligand-Induced Conformational Change of the Second Cavity in JHBP” (PLoS ONE, 2013).

pIC50: −log10 of the molar value.

Assay [1] has as its target T1, juvenile hormone-binding protein (JHBP) (Bombyx mori, UniProt Q9U556).
T1 construct: gene hJHBP; recombinant mature JHBP
The assay is described as follows: crystal structure ([…] Å); competition with 3H-JH III (charcoal assay).

Assay [2] deals with T1, juvenile hormone-binding protein (JHBP). The assay is described as follows: radioligand competition with 3H-JH III (dextran-coated charcoal).

For `CC(O)CC(C)(C)O` (racemic) [MPD, 2-methyl-2,4-pentanediol], the pIC50 (commonly the IC50 on a negative log10 scale, so that one unit is a factor of ten) in assay [1] was 3.80.

In the case of `COC(C)(C)CCC[C@H](C)C/C=C/C(C)=C/C(=O)OC(C)C` (racemic) [methoprene], the pIC50 in assay [2] was 4.46.
